Assay [1] deals with T1, human serotonin 5-HT1A receptor (Homo sapiens, UniProt P08908).
T1 sequence (P08908 1-422): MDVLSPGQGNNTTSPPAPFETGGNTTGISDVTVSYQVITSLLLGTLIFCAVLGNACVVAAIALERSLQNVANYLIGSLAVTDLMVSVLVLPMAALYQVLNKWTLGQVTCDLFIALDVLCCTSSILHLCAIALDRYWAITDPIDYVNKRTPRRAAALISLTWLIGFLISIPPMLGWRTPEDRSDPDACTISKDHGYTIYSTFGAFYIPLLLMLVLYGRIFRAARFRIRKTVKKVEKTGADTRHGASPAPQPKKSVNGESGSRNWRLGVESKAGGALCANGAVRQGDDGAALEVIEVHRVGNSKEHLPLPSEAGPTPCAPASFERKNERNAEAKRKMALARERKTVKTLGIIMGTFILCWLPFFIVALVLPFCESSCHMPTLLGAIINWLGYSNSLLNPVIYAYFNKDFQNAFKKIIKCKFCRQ
Description: Binding affinity at human serotonin 5-HT1A receptor. To be noted: triplicate; na = not active (< 50% inhibition in a primary assay).

Assay [2] deals with human dopamine D2 receptor (Homo sapiens, UniProt P14416). As to the kind of experiment: Binding affinity at human dopamine D2 receptor. As to conditions: triplicate; na = not active (< 50% inhibition in a primary assay).
Assay [3] addresses human dopamine D1 receptor (Homo sapiens, UniProt P21728). As to the kind of experiment: Binding affinity at human dopamine D1 receptor. As to conditions: amide versus aniline precursor.

SMILES strings stand for the structures. Some results are limits rather than exact numbers.

Sequence of human dopamine D1 receptor (P21728 whole entry): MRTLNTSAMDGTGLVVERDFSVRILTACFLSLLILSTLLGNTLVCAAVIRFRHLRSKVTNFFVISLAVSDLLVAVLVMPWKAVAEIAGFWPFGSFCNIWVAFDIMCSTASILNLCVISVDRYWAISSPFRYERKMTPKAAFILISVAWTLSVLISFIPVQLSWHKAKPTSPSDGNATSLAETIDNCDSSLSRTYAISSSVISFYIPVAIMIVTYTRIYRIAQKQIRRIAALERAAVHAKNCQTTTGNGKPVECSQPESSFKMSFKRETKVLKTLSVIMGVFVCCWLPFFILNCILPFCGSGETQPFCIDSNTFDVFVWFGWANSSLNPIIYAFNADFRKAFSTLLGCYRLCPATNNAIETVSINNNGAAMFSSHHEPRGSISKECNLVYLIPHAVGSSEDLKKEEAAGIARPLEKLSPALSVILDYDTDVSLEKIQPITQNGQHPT
Sequence of human dopamine D2 receptor (P14416 whole entry): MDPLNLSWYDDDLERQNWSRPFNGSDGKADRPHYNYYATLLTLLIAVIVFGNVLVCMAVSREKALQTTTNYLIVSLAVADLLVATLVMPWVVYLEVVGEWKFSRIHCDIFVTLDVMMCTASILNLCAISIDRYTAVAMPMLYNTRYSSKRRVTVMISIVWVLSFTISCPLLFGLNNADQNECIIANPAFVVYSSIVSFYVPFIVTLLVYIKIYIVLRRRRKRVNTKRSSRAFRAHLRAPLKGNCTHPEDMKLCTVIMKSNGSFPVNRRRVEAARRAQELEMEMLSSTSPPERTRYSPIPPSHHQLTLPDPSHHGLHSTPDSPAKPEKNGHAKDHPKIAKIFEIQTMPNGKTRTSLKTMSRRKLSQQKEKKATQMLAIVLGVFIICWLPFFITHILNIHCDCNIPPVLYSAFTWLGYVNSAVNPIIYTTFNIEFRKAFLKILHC

In the case of `C=CCOc1c(OC)cc2c3c1-c1cc(N)ccc1CC3N(C)CC2` (stereo not shown) [Compound 19d], the “Ki 5-HT1A” value in assay [1] was “no affinity”.

With `C=CCOc1c(OC)cc2c3c1-c1cc(NC(C)=O)ccc1CC3N(C)CC2` (stereo not shown) [Compound 20b], the “Ki D2” value in assay [2] is reported as “no D2 receptor affinity”. The “fold increase in D1 receptor affinity on N-acylation” value in assay [3] was no more than 12 fold.

As for `C#CCOc1c(OC)cc2c3c1-c1cc(NC(C)=O)ccc1CC3N(C)CC2` (stereo not shown) [Compound 20c], in assay [3], the “fold increase in D1 receptor affinity on N-acylation” value is no more than 12 fold.

These data come from paper PMC7067653 (Bioorganic & medicinal chemistry letters, 2020).
